Results on two compounds are retold here after patent US20240182561A1, “CALCIUM VOLTAGE-GATED CHANNEL AUXILIARY SUBUNIT GAMMA 1 (CACNG1) BINDING PROTEINS AND CACNG1-MEDIATED DELIVERY TO SKELETAL MUSCLE” (Regeneron Pharmaceuticals, Inc., priority 2022, published 2024).

One data set concerns Dmpk. In words: In vivo siRNA durability of Dmpk knockdown. On the set-up: species or system mouse. The settings on record: 1 week post treatment, 3 and 5 mg/kg siRNA; FIGS. 13A-13E.
For the next data set, the system named is HEK293. Nature of the data set: Indirect (secondary) cell killing assay. The class given is cell-based, human. The settings on record: Table 11-3; maximum % kill. The text has this:
To test the ability of anti-CACNG1 antibodies described herein to bind, internalize, and deliver payloads, cell binding and indirect cell killing assays were developed with primary human skeletal myoblasts (Cook Myosite Cat #SkMDC SK-1111), C2C12 mouse myoblasts (ATCC Cat #CRL-1772), and HEK293 cells engineered to express human and mouse CACNG1 (HEK293/hCACNG1 and HEK293/mCACNG1, respectively). To generate the HEK293/hCACNG1 and HEK293/mCACNG1 cell lines, FuGEGE 6 (Promega, Cat #E2691/5/3) was used to transfect HEK293HZ cells with a human CACNG1 (hCACNG1; amino acid M1-H222, Accession #NP_000718.1) or mouse CACNG1 (mCACNG1; amino acid M1-H223, Accession #NP_031608.1) expression vector. HEK293HZ is a highly transfectable subclone of HEK293 cells (1) authenticated via STIR (short tandem repeat) profiling to be 81% identical to HEK293 cells sourced from ATCC). […]
(§1) An indirect cell killing assay was used to assess the ability of anti-CACNG1 antibodies to internalize and deliver payloads into cells. In vitro cytotoxicity of the anti-CACNG1 antibodies alone or in combination with Fab anti-human Fc or Fab anti-mouse Fc secondary antibodies conjugated to Duocarmycin DM (Moradec, Cat #AH-202-DD-50 or Cat #AM-202-DD-50) were evaluated using the CellTiter-Glo 2.0 Assay Kit (Promega, Cat #G9243), in which the quantity of ATP present is used to determine the number of viable cells in culture. […]

Data set [1] has as its system primary human skeletal myotubes (HuSKM). Nature of the data set: Indirect (secondary) cell killing assay. The class given is cell-based. The settings on record: Table 11-3; maximum % kill.
Source text: (§2) To test the ability of anti-CACNG1 antibodies described herein to bind, internalize, and deliver payloads, cell binding and indirect cell killing assays were developed with primary human skeletal myoblasts (Cook Myosite Cat #SkMDC SK-1111), C2C12 mouse myoblasts (ATCC Cat #CRL-1772), and HEK293 cells engineered to express human and mouse CACNG1 (HEK293/hCACNG1 and HEK293/mCACNG1, respectively). To generate the HEK293/hCACNG1 and HEK293/mCACNG1 cell lines, FuGEGE 6 (Promega, Cat #E2691/5/3) was used to transfect HEK293HZ cells with a human CACNG1 (hCACNG1; amino acid M1-H222, Accession #NP_000718.1) or mouse CACNG1 (mCACNG1; amino acid M1-H223, Accession #NP_031608.1) expression vector. HEK293HZ is a highly transfectable subclone of HEK293 cells (1) authenticated via STIR (short tandem repeat) profiling to be 81% identical to HEK293 cells sourced from ATCC). The HEK293HZ cell line was maintained in DMEM+10% FBS+1% L-glutamine/penicillin/streptomycin, while HEK293/hCACNG1 and HEK293/mCACNG1 cell lines were maintained in DMEM+10% FBS+1% L-glutamine/penicillin/streptomycin+500 ug/mL G418. Human skeletal myoblasts (HuSKM) were maintained in MyoTonic Basal Media (Cook Myosite Cat #MB-2222) supplemented with MyoTonic Growth Supplement (Cook Myosite Cat #MS-3333) and grown in a 37° C. incubator with 5% CO2. HuSKM were seeded in collagen-coated 96-well plates (Greiner Bio-One #655956) at 8,500 cells/well and grown for 24 hours. The growth media was changed to MyoTonic Differentiation Media (Cook Myosite Cat #MD-5555) and replaced every 2 days. Myotubes were assayed after 6 days of differentiation. C2C12 mouse myoblasts were maintained in DMEM with 10% FBS and 1% penicillin-streptomycin supplement and grown in a 37° C. incubator with 5% CO2. C2C12 cells were seeded in collagen-coated 96-well plates (Greiner Bio-One #655956) at 10,000 cells/well for the cell binding assay and 5,000 cells/well for the cell killing assay. After 24 hours, growth media was replaced with differentiation media (DMEM with 2% horse serum) and placed in a 37° C. incubator with 7.5% CO2. C2C12 myotubes were assayed after 3 days of differentiation. […]
as §1

The target of the next data set is T1, HEK293/mCACNG1 (Mus musculus, UniProt O70578).
T1 construct: mouse CACNG1 (mCACNG1); expressed in transfected cells
T1 sequence (O70578 1-223): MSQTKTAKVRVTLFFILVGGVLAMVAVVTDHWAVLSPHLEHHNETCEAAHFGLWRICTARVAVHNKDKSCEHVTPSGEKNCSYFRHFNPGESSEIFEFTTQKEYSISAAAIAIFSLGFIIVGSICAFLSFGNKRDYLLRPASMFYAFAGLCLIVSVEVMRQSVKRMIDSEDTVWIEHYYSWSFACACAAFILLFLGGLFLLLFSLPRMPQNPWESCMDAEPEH
Nature of the data set: Indirect (secondary) cell killing assay. It is filed as cell-based. The conditions noted are these: Table 11-3; maximum % kill.
Source text: as §2, §1

For a further data set, the system named is mouse myotubes (C2C12). Nature of the data set: Indirect (secondary) cell killing assay. The class given is cell-based. The settings on record: Table 11-3; maximum % kill.
Source text: as §2, §1

The target of a further data set is T2, HEK293/hCACNG1 (Homo sapiens, UniProt Q06432).
T2 construct: human CACNG1 (hCACNG1); expressed in transfected cells
Nature of the data set: Indirect (secondary) cell killing assay. The class given is cell-based. The settings on record: Table 11-3; maximum % kill = 100 - minimum percent viability.
Source text: as §2, §1

T2 sequence (Q06432 whole entry): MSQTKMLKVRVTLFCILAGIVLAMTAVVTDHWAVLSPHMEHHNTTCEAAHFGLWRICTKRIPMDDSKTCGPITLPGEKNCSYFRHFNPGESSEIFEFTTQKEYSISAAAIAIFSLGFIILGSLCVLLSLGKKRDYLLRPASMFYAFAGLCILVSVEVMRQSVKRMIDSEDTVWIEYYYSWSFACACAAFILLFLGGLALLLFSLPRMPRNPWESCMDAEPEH
Experimental for Dmpk: All doses were adjusted for drug-to-antibody (DAR) ratio, i.e., mice were dosed based on siRNA amount for body weight, as determined by liquid chromatography electrospray ionization approaches described herein. […] Mice were sacrificed at either 1 week, 3 weeks, or 6 weeks post dosing. […] The following tissues were placed into RNAlater (ThermoFisher Catalog #AM7021): gastrocnemius, soleus, quadricep, tibialis anterior, diaphragm, heart, liver, spleen, kidney. Tissues were allowed to sit in RNAlater for at least 2 hours at room temperature before being transferred to −20° C. Total RNA was purified using MagMAX™-96 for Microarrays Total RNA Isolation Kit Catalog #AM1839 (Ambion by Life Technologies) according to manufacturer's specifications. […] Samples were then reverse transcribed using SuperScript VILO MasterMix (Invitrogen Catalog #11755-250) according to manufacturer's specifications. For TaqMan gene expression analysis, TaqMan Gene Expression MasterMix (ThermoFisher Scientific Ref #4369016) was used according to manufacturer's specifications. The probes used in the assay were as followed: Dmpk FAM (ThermoFisher Mm00446261_m1) and Rplp0 (ThermoFisher Mm01974474_gH).

Take “naked siRNA: siRNA against DMPK (siRNA1), SEQ ID NO: 416 sense and 417 antisense, used unconjugated as control (sense CCUCGGUAUUUAUUGUCUA; antisense UAGACAAUAAAUACCGAGG; listed as RNA, further chemistry not given here)”: in the data set with Dmpk, the “Dmpk knockdown in skeletal muscle” value is given as “no noticeable knockdown”.

Regarding `COC(=O)c1cc2c([nH]1)C(=O)C=C1N(C(=O)c3cc4cc(OC)c(OC)c(OC)c4[nH]3)C[C@H]3C[C@]123` [Duocarmycin], the “% KILL” value was determined as 99.6% in the data set on HEK293; 97.3% in data set [1]; 99.8% at HEK293/mCACNG1; 99.6% in the data set on mouse myotubes (C2C12); 99.7% on HEK293/hCACNG1.
